The CheMixHub drug solubility set

Experiment: xn = mol fraction of the nth substance listed, in the solute-free solvent

c1ccc(-c2ccc(C(c3ccccc3)n3ccnc3)cc2)cc1 (stereo not drawn) + CO + O
solubility (g/100 g solution)
Conditions	278.15 K	283.15 K	288.15 K	293.15 K	298.15 K	303.15 K	308.15 K	313.15 K	318.15 K
x2 = 0.05881	0.0843	0.114	0.153	0.198	0.236	0.32	0.418	0.51	0.631
x2 = 0.1233	0.301	0.4	0.525	0.671	0.792	1.05	1.35	1.63	1.98
x2 = 0.1942	0.641	0.845	1.1	1.39	1.74	2.21	2.78	3.35	3.94
x2 = 0.2727	0.98	1.28	1.66	2.1	2.5	3.23	4.06	4.89	5.86
x2 = 0.3599	1.23	1.68	2.17	2.73	3.35	4.17	5.19	6.23	7.39
x2 = 0.4576	1.42	1.87	2.41	3.07	3.72	4.76	5.94	7.21	8.64
x2 = 0.5675	1.6	2.11	2.72	3.56	4.38	5.54	6.87	8.37	9.89
x2 = 0.6923	1.81	2.39	3.08	3.95	4.89	6.2	7.71	9.46	11.3
x2 = 0.835	2.04	2.8	3.67	4.72	5.88	7.29	8.87	10.8	12.9

CCOC(=O)OC1=C(c2cc(C)ccc2C)C(=O)NC12CCC(OC)CC2 (stereo not drawn) + CCO + O
solubility (g/100 g solution)
Conditions	278.15 K	283.15 K	288.15 K	293.15 K	298.15 K	303.15 K	308.15 K	313.15 K	318.15 K
x2 = 0.2	0.0705	0.151	0.226	0.365	0.51	0.748	1.02	1.33	1.82
x2 = 0.4	1.44	1.85	2.31	2.96	3.91	5.06	6.59	8.52	11.1
x2 = 0.6	2.83	3.59	4.57	5.78	7.18	9.11	11.5	14.3	17.8
x2 = 0.8	3.14	3.95	4.97	6.19	7.77	9.63	12	15	18.7

CCOc1ccccc1C(N)=O + CC#N + CC(C)O
solubility (g/100 g solution)
Conditions	x2 = 0.1	x2 = 0.2	x2 = 0.3	x2 = 0.4	x2 = 0.5	x2 = 0.6	x2 = 0.7	x2 = 0.8	x2 = 0.9
298.15 K	4.36	5.28	6.05	6.41	6.8	6.66	6.22	5.59	4.71
303.15 K	5.5	6.58	7.52	8.13	8.55	8.45	7.99	7.3	6.12
308.15 K	6.49	7.95	9.11	10.1	10.4	10.5	10.1	9.2	7.99
313.15 K	8.08	9.85	11.3	12.4	13	13	12.6	11.7	9.97
318.15 K	10.2	12.3	14.1	15.4	16.1	16.2	15.6	14.4	12.6
323.15 K	13	15.5	17.7	19.2	20.1	20.3	19.6	18.3	16.1

Cc1c(Br)c(=O)n(C2CCCC2)c2nc(Cl)ncc12 + C1CCOC1 + CCO
solubility (g/100 g solution)
Conditions	278.15 K	283.15 K	288.15 K	293.15 K	298.15 K	303.15 K	308.15 K	313.15 K	318.15 K	323.15 K
x2 = 0.1	0.59	0.723	0.88	1.07	1.28	1.53	1.82	2.14	2.52	2.94
x2 = 0.2	1.06	1.25	1.51	1.81	2.16	2.56	3.01	3.52	4.1	4.74
x2 = 0.3	1.49	1.8	2.16	2.58	3.05	3.6	4.21	4.9	5.66	6.51
x2 = 0.4	1.9	2.29	2.74	3.26	3.84	4.51	5.26	6.1	7.04	8.07
x2 = 0.5	2.25	2.71	3.34	3.83	4.52	5.29	6.16	7.13	8.2	9.38
x2 = 0.6	2.56	3.07	3.67	4.35	5.12	5.99	6.96	8.04	9.23	10.5
x2 = 0.7	2.85	3.42	4.08	4.83	5.68	6.64	7.71	8.9	10.2	11.7
x2 = 0.8	3.12	3.75	4.47	5.29	6.22	7.27	8.44	9.73	11.2	12.7
x2 = 0.9	3.34	4.01	4.79	5.67	6.67	7.79	9.04	10.4	11.9	13.6

Cc1ncc(CO)c(CO)c1O.Cl + O + CC(C)O
solubility (g/100 g solution)
Conditions	278.15 K	283.15 K	288.15 K	293.15 K	298.15 K	303.15 K	308.15 K	313.15 K
x2 = 0.3	0.401	0.512	0.632	0.825	1.01	1.26	1.54	1.89
x2 = 0.4	0.684	0.867	1.11	1.47	1.84	2.34	2.86	3.53
x2 = 0.5	1.35	1.72	2.2	2.8	3.42	4.25	5.16	6.25
x2 = 0.6	2.56	3.18	3.92	4.83	5.89	7.02	8.34	9.79
x2 = 0.7	3.45	4.36	5.42	6.76	8.29	10.1	12	14.3
x2 = 0.8	4.83	6.11	7.62	9.29	11.3	13.4	15.8	18.8
x2 = 0.9	7.31	8.78	10.7	12.7	14.4	16.6	19.7	23.9

N#CCNC(=O)c1cnccc1C(F)(F)F + CCOC(C)=O + CCO
solubility (g/100 g solution)
Conditions	283.15 K	288.15 K	293.15 K	298.15 K	303.15 K	308.15 K	313.15 K	318.15 K	323.15 K
x2 = 0.2	4.4	5.22	6.22	7.38	8.72	10.2	12	14	16.2
x2 = 0.4	5.66	6.57	7.58	8.78	10.1	11.6	13.2	15.2	17.2
x2 = 0.6	5.43	6.27	7.24	8.3	9.5	10.8	12.3	13.9	15.6
x2 = 0.8	4.38	5.03	5.77	6.59	7.53	8.56	9.69	10.9	12.3

NC(=O)NC1NC(=O)NC1=O (stereo not drawn) + O + CO
solubility (g/100 g solution)
Conditions	288.15 K	293.15 K	298.15 K	303.15 K	308.15 K	313.15 K	318.15 K	323.15 K	328.15 K	333.15 K
x2 = 0.2	0.0735	0.0876	0.104	0.134	0.155	0.188	0.219	0.264	0.299	0.353
x2 = 0.359	0.114	0.138	0.175	0.205	0.255	0.297	0.357	0.443	0.521	0.582
x2 = 0.599	0.212	0.27	0.328	0.408	0.519	0.629	0.74	0.895	1.08	1.23
x2 = 0.771	0.239	0.328	0.424	0.526	0.694	0.866	1.06	1.28	1.55	1.94
x2 = 0.9	0.319	0.389	0.506	0.642	0.836	1.05	1.29	1.53	1.86	2.27
